The structures appear in SMILES notation. Counter-ions that a name gives are not always drawn. Like-named read-outs stand apart in the source and are kept apart here.

The record followed here is patent publication US10004701B2, “Methods and compositions for treating infection” (UNIVERSITY OF ROCHESTER, priority 2012, dated 2018).

Test in all cases: AK assay 384-well format, Prestwick library screening
In assay [1] the test system is E. faecium. The format is cell-based, Enterococcus faecium. The following applies: 50 μM final drug concentration; for fold induction at 50 µM: Enterococcus faecium, 3 h.
The test system of assay [2] is S. aureus strain USA300-0114. The format is cell-based, Staphylococcus aureus. The following applies: for fold induction at 50 µM: Staphylococcus aureus, USA300, 3 h.
Assay [3] has as its system K. pneumoniae. The format is cell-based, Klebsiella pneumoniae. To be noted: 50 μM final drug concentration; for fold induction at 50 µM: Klebsiella pneumoniae, 3 h.
Assay [4] has as its system A. baumannii strain 98-37-09. The format is cell-based, Acinetobacter baumannii. The following applies: 50 μM final drug concentration; for fold induction at 50 µM: Acinetobacter baumannii, 983709, 3 h.
The test system of assay [5] is P. aeruginosa. Format: cell-based, Pseudomonas aeruginosa. To be noted: 50 μM final drug concentration; for fold induction at 50 µM: Pseudomonas aeruginosa, 3 h.
In assay [6] the test system is E. cloacae. The format is cell-based, Enterobacter cloacae. The following applies: 50 μM final drug concentration; for fold induction at 50 µM: Enterobacter cloacae, 3 h.
Assay [7] deals with E. coli. The format is cell-based, Escherichia coli. The following applies: 50 μM final drug concentration; for fold induction at 50 µM: Escherichia coli, 3 h.
Where [8] appears, read: planktonic, cutoff for positive 3-fold increase, read-out: AK-based Prestwick Library Screening Results, E. faecium (fold increase in extracellular AK activity).
The mark [9] stands for this setting: 50 μM final drug concentration, planktonic, cutoff for positive 3-fold increase, read-out: AK-based Prestwick Library Screening Results, S. aureus (fold increase in extracellular AK activity).
Where [10] appears, read: planktonic, cutoff for positive 3-fold increase, read-out: AK-based Prestwick Library Screening Results, K. pneumoniae (fold increase in extracellular AK activity).
[11] abbreviates: planktonic, cutoff for positive 3-fold increase, read-out: AK-based Prestwick Library Screening Results, A. baumannii (fold increase in extracellular AK activity).
Where [12] appears, read: planktonic, cutoff for positive 3-fold increase, read-out: AK-based Prestwick Library Screening Results, P. aeruginosa (fold increase in extracellular AK activity).
[13] abbreviates: planktonic, cutoff for positive 3-fold increase, read-out: AK-based Prestwick Library Screening Results, E. cloacae (fold increase in extracellular AK activity).
Setting [14] is: planktonic, cutoff for positive 3-fold increase, read-out: AK-based Prestwick Library Screening Results, E. coli (fold increase in extracellular AK activity).
Where [15] appears, read: 384-well format, cutoff for positive-scoring molecules 3-fold increase, read-out: AK-based Prestwick Library Screening Results, E. faecium (increase in extracellular AK activity).
Where [16] appears, read: 50 μM final drug concentration, 384-well format, cutoff for positive-scoring molecules 3-fold increase, read-out: AK-based Prestwick Library Screening Results, S. aureus (increase in extracellular AK activity).
Where [17] appears, read: 384-well format, cutoff for positive-scoring molecules 3-fold increase, read-out: AK-based Prestwick Library Screening Results, K. pneumoniae (increase in extracellular AK activity).
[18] abbreviates: 384-well format, cutoff for positive-scoring molecules 3-fold increase, read-out: AK-based Prestwick Library Screening Results, A. baumannii (increase in extracellular AK activity).
Setting [19] is: 384-well format, cutoff for positive-scoring molecules 3-fold increase, read-out: AK-based Prestwick Library Screening Results, P. aeruginosa (increase in extracellular AK activity).
The mark [20] stands for this setting: 384-well format, cutoff for positive-scoring molecules 3-fold increase, read-out: AK-based Prestwick Library Screening Results, E. cloacae (increase in extracellular AK activity).
The mark [21] stands for this setting: 384-well format, cutoff for positive-scoring molecules 3-fold increase, read-out: AK-based Prestwick Library Screening Results, E. coli (increase in extracellular AK activity).
Setting [22] is: planktonic E. faecium, 384-well, cutoff for positive-scoring molecules 3-fold increase, read-out: AK-based Prestwick Library Screening Results: E. faecium (increase in extracellular AK activity).
The mark [23] stands for this setting: planktonic S. aureus, 50 μM final drug concentration, 384-well, cutoff for positive-scoring molecules 3-fold increase, read-out: AK-based Prestwick Library Screening Results: S. aureus (increase in extracellular AK activity).
[24] abbreviates: planktonic K. pneumoniae, 384-well, cutoff for positive-scoring molecules 3-fold increase, read-out: AK-based Prestwick Library Screening Results: K. pneumoniae (increase in extracellular AK activity).
Where [25] appears, read: planktonic A. baumannii, 384-well, cutoff for positive-scoring molecules 3-fold increase, read-out: AK-based Prestwick Library Screening Results: A. baumannii (increase in extracellular AK activity).
[26] abbreviates: planktonic P. aeruginosa, 384-well, cutoff for positive-scoring molecules 3-fold increase, read-out: AK-based Prestwick Library Screening Results: P. aeruginosa (increase in extracellular AK activity).
The mark [27] stands for this setting: planktonic E. cloacae, 384-well, cutoff for positive-scoring molecules 3-fold increase, read-out: AK-based Prestwick Library Screening Results: E. cloacae (increase in extracellular AK activity).
[28] abbreviates: planktonic E. coli, 384-well, cutoff for positive-scoring molecules 3-fold increase, read-out: AK-based Prestwick Library Screening Results: E. coli (increase in extracellular AK activity).

On to `OC(CCN1CCCCC1)(c1ccccc1)C1CC2C=CC1C2` (stereo not shown) [Biperiden hydrochloride], for which the fold induction at 50 µM in assay [1] (planktonic E. faecium, cutoff for positive-scoring molecules 3-fold increase, read-out: AK-based Prestwick Library Screening Results, E. faecium (increase in extracellular AK activity)) stood at 0.9; in assay [2] (planktonic S. aureus, 50 μM final drug concentration, cutoff for positive-scoring molecules 3-fold increase, read-out: AK-based Prestwick Library Screening Results, S. aureus (increase in extracellular AK activity)) it was 0.6; in assay [3] (planktonic K. pneumoniae, cutoff for positive-scoring molecules 3-fold increase, read-out: AK-based Prestwick Library Screening Results, K. pneumoniae (increase in extracellular AK activity)) it was 0.8; in assay [4] (planktonic A. baumannii, cutoff for positive-scoring molecules 3-fold increase, read-out: AK-based Prestwick Library Screening Results, A. baumannii (increase in extracellular AK activity)), 0.8; in assay [5] (planktonic P. aeruginosa, cutoff for positive-scoring molecules 3-fold increase, read-out: AK-based Prestwick Library Screening Results, P. aeruginosa (increase in extracellular AK activity)), 0.8; in assay [6] (planktonic E. cloacae, cutoff for positive-scoring molecules 3-fold increase, read-out: AK-based Prestwick Library Screening Results, E. cloacae (increase in extracellular AK activity)) it was 0.9. The fold induction at 50 µM in assay [7] (planktonic E. coli, cutoff for positive-scoring molecules 3-fold increase, read-out: AK-based Prestwick Library Screening Results, E. coli (increase in extracellular AK activity)) was 1.

For the compound `CC(C)/N=c1\cc2n(-c3ccc(Cl)cc3)c3ccccc3nc-2cc1Nc1ccc(Cl)cc1` [Clofazimine, clofazimine, reference compound], the fold induction at 50 µM in assay [1] (setting [8]) came out at 1; in assay [2] (setting [9]), 4.6; in assay [3] (setting [10]), 1.1; in assay [4] (setting [11]), 5; in assay [5] (setting [12]), 1; in assay [6] (setting [13]), 1.8. For the same compound, the fold induction at 50 µM in assay [7] (setting [14]) is 1.2. For the same compound, in assay [2] (S. aureus USA300-0114, 50 μM, cutoff 3-fold increase in AK), the “activity in AK Prestwick screen” value was “active”.

On to `CC(NC(C)(C)C)C(=O)c1cccc(Cl)c1` (stereo not shown) [Bupropion hydrochloride], for which the fold induction at 50 µM in assay [1] (setting [15]) was determined as 1; in assay [2] (setting [16]), 0.5; in assay [3] (setting [17]), 0.5; in assay [4] (setting [18]) it was 0.5; in assay [5] (setting [19]), 0.5; in assay [6] (setting [20]), 0.5. The fold induction at 50 µM in assay [7] (setting [21]) is 0.5.

On to `CCC1=C[C@@H]2CN3CCc4c([nH]c5ccccc45)[C@@](C(=O)OC)(C2)[C@@H]13` [Catharanthine], for which the “AK-based Prestwick Library Screening Results, E. faecium (increase in extracellular AK activity)” value in assay [1] (384-well format, […]) is on record as 1.0. The “AK-based Prestwick Library Screening Results, S. aureus (increase in extracellular AK activity)” value in assay [2] (50 μM final drug concentration, 384-well format, […]) came out at 0.8. Also, in assay [3] (384-well format, […]), the “AK-based Prestwick Library Screening Results, K. pneumoniae (increase in extracellular AK activity)” value is 0.8. Besides, the “AK-based Prestwick Library Screening Results, A. baumannii (increase in extracellular AK activity)” value in assay [4] (384-well format, […]) was 0.8. Also, the “AK-based Prestwick Library Screening Results, P. aeruginosa (increase in extracellular AK activity)” value in assay [5] (384-well format, […]) is listed as 0.7. The “AK-based Prestwick Library Screening Results, E. cloacae (increase in extracellular AK activity)” value in assay [6] (384-well format, […]) is on record as 1.0. The “AK-based Prestwick Library Screening Results, E. coli (increase in extracellular AK activity)” value in assay [7] (384-well format, […]) turned out to be 1.0.

As to `CCC[C@@H]1C[C@@H](C(=O)N[C@@H]([C@H]2O[C@H](SC)[C@H](O)[C@@H](O)[C@H]2O)[C@H](C)Cl)N(C)C1` [Clindamycin hydrochloride], the fold induction at 50 µM was found to be 1.2 in assay [1] (setting [22]); 8.4 in assay [2] (setting [23]); 0.5 in assay [3] (setting [24]); 1 in assay [4] (setting [25]); 1.1 in assay [5] (setting [26]); 1.7 in assay [6] (setting [27]). Moreover, the fold induction at 50 µM in assay [7] (setting [28]) stood at 0.8.

For `CCCCOc1ccc(C(=O)CCN2CCCCC2)cc1` [Dyclonine hydrochloride], the fold induction at 50 µM in assay [1] (setting [15]) was determined as 1; in assay [2] (setting [16]) it was 0.9; in assay [3] (setting [17]) it was 0.7; in assay [4] (setting [18]), 0.9; in assay [5] (setting [19]) it was 1; in assay [6] (setting [20]) it was 1.1. In addition, in assay [7] (setting [21]), the fold induction at 50 µM is 1.

On to `Cc1c(N)c(=O)n(-c2ccccc2)n1C` [Ampyrone], for which the fold induction at 50 µM amounted to 1 in assay [1] (setting [15]); 0.8 in assay [2] (setting [16]); 0.7 in assay [3] (setting [17]); 0.9 in assay [4] (setting [18]); 1 in assay [5] (setting [19]); 1 in assay [6] (setting [20]). Moreover, in assay [7] (setting [21]), the fold induction at 50 µM was determined as 0.9.

In the case of `CC1=CC(=O)c2ccccc2C1=O` [Menadione], the fold induction at 50 µM in assay [1] (setting [8]) is 1.1; in assay [2] (setting [9]) it was 1.4; in assay [3] (setting [10]) it was 1; in assay [4] (setting [11]), 1; in assay [5] (setting [12]) it was 1.2; in assay [6] (setting [13]), 1.5. In addition, the fold induction at 50 µM in assay [7] (setting [14]) is 1.

Take `CC(=O)c1ccc(S(=O)(=O)NC(=O)NC2CCCCC2)cc1` [Acetohexamide]: the fold induction at 50 µM came to 0.9 in assay [1] (setting [22]); 1.1 in assay [2] (setting [23]); 0.8 in assay [3] (setting [24]); 1.1 in assay [4] (setting [25]); 1.2 in assay [5] (setting [26]); 1.7 in assay [6] (setting [27]). In addition, the fold induction at 50 µM in assay [7] (setting [28]) stood at 1.2.
